These compounds were tested against NRAS Q61K (Homo sapiens, UniProt P01111+P62937, Q61K) (assay: Disruption of BRAF RBD interaction with Ras (FRET / MOA assay)). Details: read-out: NRAS Q61K FRET data IC50.
Sequence of NRAS Q61K (P01111 whole entry Q61K): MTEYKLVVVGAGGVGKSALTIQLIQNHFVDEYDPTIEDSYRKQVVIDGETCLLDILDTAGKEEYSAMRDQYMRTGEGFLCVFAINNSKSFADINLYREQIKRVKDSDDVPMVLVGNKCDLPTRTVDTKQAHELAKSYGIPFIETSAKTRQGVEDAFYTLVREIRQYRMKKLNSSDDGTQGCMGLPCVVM
Sequence of NRAS Q61K (P62937 whole entry): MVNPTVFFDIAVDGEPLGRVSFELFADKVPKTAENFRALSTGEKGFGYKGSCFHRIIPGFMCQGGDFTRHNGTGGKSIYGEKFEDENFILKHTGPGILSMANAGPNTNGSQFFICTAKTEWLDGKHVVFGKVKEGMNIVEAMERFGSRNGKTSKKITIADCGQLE
Assay type: biochemical
Protocol: Compound is present in plate wells as a 10-point 3-fold dilution series starting at a final concentration of 30 μM. […] Compounds that facilitate disruption of a Ras:RAF complex are identified as those eliciting a decrease in the TR-FRET ratio relative to DMSO control wells.
Note—The following protocol describes a procedure for monitoring disruption of K-Ras G12C (GMP-PNP) binding to BRAF^RBD by a compound of the invention. This protocol may also be executed substituting other Ras proteins or nucleotides.
The purpose of this biochemical assay was to measure the ability of test compounds to facilitate ternary complex formation between a nucleotide-loaded K-Ras isoform and Cyclophilin A; the resulting ternary complex disrupts binding to a BRAF^RBD construct, inhibiting K-Ras signaling through a RAF effector. Data is reported as IC50 values.
Compound was present in plate wells as a 10-point 3-fold dilution series starting at a final concentration of 30 μM. […] Compounds that facilitate disruption of a K-Ras:RAF complex were identified as those eliciting a decrease in the TR-FRET ratio relative to DMSO control wells.
In the case of `CCn1c(-c2cccnc2[C@H](C)OC)c2c3cc(ccc31)-c1csc(n1)[C@@H](OC)[C@H](NC(=O)[C@H](C(C)C)N(C)C(=O)N(C)C)C(=O)N1CCC[C@H](N1)C(=O)OCC(C)(C)C2` (atropisomer, axis not shown) [Compound A598, (2S)—N-((6^3S,3S,4S,Z)-1^1-ethyl-3-methoxy-1^2-(2-((S)-1-methoxyethyl)pyridin-3-yl)-10,10-dimethyl-5,7-dioxo-6^1,6^2,6^3,6^4,6^5,6^6-hexahydro-1^1H-8-oxa-2(4,2)-thiazola-1(5,3)-indola-6(1,3)-pyridazinacycloundecaphane-4-yl)-3-methyl-2-(1,3,3-trimethylureido)butanamide], the IC50 is reported as 10 to 100 nM.
`CCn1c(-c2cccnc2[C@H](C)OC)c2c3cc(ccc31)-c1csc(n1)C[C@H](NC(=O)[C@H](C(C)C)N(C)C(=O)N1CCO[C@@H](c3ccccc3)C1)C(=O)N1CCC[C@H](N1)C(=O)OCC(C)(C)C2` (atropisomer, axis not shown) [Compound A600] showed an IC50 of 10 to 100 nM.
With `CCn1c(-c2cccnc2[C@H](C)OC)c2c3cc(ccc31)-c1csc(n1)C[C@H](NC(=O)[C@H](C(C)C)N(C)C(=O)N1CC([C@H](C)N(C)C)C1)C(=O)N1CCC[C@H](N1)C(=O)OCC(C)(C)C2` (atropisomer, axis not shown) [Compound A538] the IC50 was 10 to 100 nM.
Compound `CCn1c(-c2cccnc2[C@H](C)OC)c2c3cc(ccc31)-c1csc(n1)C[C@H](NC(=O)[C@H](C(C)C)N(C)C(=O)N1CCC[C@H](N(C)C)C1)C(=O)N1CCC[C@H](N1)C(=O)OCC(C)(C)C2` (atropisomer, axis not shown) [Compound A569] has an IC50 of 10 to 100 nM.
`CCn1c(-c2cccnc2[C@H](C)OC)c2c3cc(ccc31)-c1cc(O)cc(c1)C[C@H](NC(=O)[C@H](C(C)C)N(C)C(=O)C1CCC3(CCOC3)O1)C(=O)N1CCC[C@H](N1)C(=O)OCC(C)(C)C2` (stereo partly drawn) [Compound A409] was tested, and the IC50 was 10 to 100 nM.
`CCn1c(-c2cccnc2[C@H](C)OC)c2c3cc(ccc31)-c1csc(n1)C[C@H](NC(=O)[C@H](C(C)C)N(C)C(=O)N1CC([C@H](C)COC)C1)C(=O)N1CCC[C@H](N1)C(=O)OCC(C)(C)C2` (atropisomer, axis not shown) [Compound A533] was tested, and the IC50 was 10 to 100 nM.
Compound `CCn1c(-c2cccnc2[C@H](C)OC)c2c3cc(ccc31)-c1csc(n1)C[C@H](NC(=O)[C@H](C(C)C)N(C)C(=O)N1CCCC[C@H](N(C)C)C1)C(=O)N1CCC[C@H](N1)C(=O)OCC(C)(C)C2` (atropisomer, axis not shown) [Compound A491] has an IC50 of 10 to 100 nM.
Work on `CCn1c(-c2cccnc2[C@H](C)OC)c2c3cc(ccc31)-c1csc(n1)C[C@H](NC(=O)[C@H](C(C)C)N(C)C(=O)N1CCO[C@@H](CN(C)C)C1)C(=O)N1CCC[C@H](N1)C(=O)OCC(C)(C)C2` (atropisomer, axis not shown) [Compound A591] yielded an IC50 of 10 to 100 nM.
`CCn1c(-c2cccnc2[C@H](C)OC)c2c3cc(ccc31)-c1csc(n1)C[C@H](NC(=O)[C@H](C(C)C)N(C)C(=O)N1CCO[C@H](c3ccccc3)C1)C(=O)N1CCC[C@H](N1)C(=O)OCC(C)(C)C2` (atropisomer, axis not shown) [Compound A582] gave an IC50 of 10 to 100 nM.
With `CCn1c(-c2cccnc2[C@H](C)OC)c2c3cc(ccc31)-c1csc(n1)C[C@H](NC(=O)[C@H](C(C)C)N(C)C(=O)N1CC(C(=O)O)C1)C(=O)N1CCC[C@H](N1)C(=O)OCC(C)(C)C2` (atropisomer, axis not shown) [Compound A344] the IC50 was 10 to 100 nM.
In the case of `CCn1c(-c2cccnc2[C@H](C)OC)c2c3cc(ccc31)-c1csc(n1)C[C@H](NC(=O)[C@H](C(C)C)N(C)C(=O)N1C[C@H](N)[C@@H](O)C1)C(=O)N1CCC[C@H](N1)C(=O)OCC(C)(C)C2` (atropisomer, axis not shown) [Compound A581], the IC50 is reported as 10 to 100 nM.
`CCn1c(-c2cccnc2[C@H](C)OC)c2c3cc(ccc31)-c1csc(n1)C[C@H](NC(=O)[C@H](C(C)C)N(C)C(=O)N1CC(NS(C)(=O)=O)C1)C(=O)N1CCC[C@H](N1)C(=O)OCC(C)(C)C2` (atropisomer, axis not shown) [Compound A552] showed an IC50 of 10 to 100 nM.
Work on `CCn1c(-c2cccnc2[C@H](C)OC)c2c3cc(ccc31)-c1csc(n1)C[C@H](NC(=O)[C@H](C(C)C)N(C)C(=O)N1CC3(CC(N(C)C(C)C)C3)C1)C(=O)N1CCC[C@H](N1)C(=O)OCC(C)(C)C2` (atropisomer, axis not shown) [Compound A485] yielded an IC50 of 10 to 100 nM.
Compound `CCn1c(-c2cccnc2[C@H](C)OC)c2c3cc(ccc31)-c1csc(n1)C[C@H](NC(=O)[C@H](C(C)C)N(C)C(=O)N1CC(COC)C1)C(=O)N1CCC[C@H](N1)C(=O)OCC(C)(C)C2` (atropisomer, axis not shown) [Compound A387] has an IC50 of 10 to 100 nM.
`CCn1c(-c2cccnc2[C@H](C)OC)c2c3cc(ccc31)-c1csc(n1)C[C@H](NC(=O)[C@H](C(C)C)N(C)C(=O)N1CCN(C(=O)[C@@H]3CCCN3C)CC1)C(=O)N1CCC[C@H](N1)C(=O)OCC(C)(C)C2` (atropisomer, axis not shown) [Compound A596] gave an IC50 of 10 to 100 nM.
`CCn1c(-c2cccnc2[C@H](C)OC)c2c3cc(ccc31)-c1csc(n1)C[C@H](NC(=O)[C@H](C(C)C)N(C)C(=O)N1CC3(CC(N(C)C4COC4)C3)C1)C(=O)N1CCC[C@H](N1)C(=O)OCC(C)(C)C2` (atropisomer, axis not shown) [Compound A511] showed an IC50 of 10 to 100 nM.
Compound `CCn1c(-c2cccnc2[C@H](C)OC)c2c3cc(ccc31)-c1csc(n1)C[C@H](NC(=O)[C@H](C(C)C)N(C)C(=O)N1CC(S(C)(=O)=O)C1)C(=O)N1CCC[C@H](N1)C(=O)OCC(C)(C)C2` (atropisomer, axis not shown) [Compound A383] has an IC50 of 10 to 100 nM.
Compound `CCn1c(-c2cccnc2[C@H](C)OC)c2c3cc(ccc31)-c1csc(n1)C[C@H](NC(=O)[C@H](C(C)C)N(C)C(=O)N1CC(C#N)(N(C)C)C1)C(=O)N1CCC[C@H](N1)C(=O)OCC(C)(C)C2` [Compound A452] has an IC50 of 10 to 100 nM.
In the case of `CCn1c(-c2cccnc2[C@H](C)OC)c2c3cc(ccc31)-c1csc(n1)C[C@H](NC(=O)[C@H](C(C)C)N(C)C(=O)N1CC(CN(C)C)C1)C(=O)N1CCC[C@H](N1)C(=O)OCC(C)(C)C2` (atropisomer, axis not shown) [Compound A576], the IC50 is reported as 10 to 100 nM.
In the case of `CCn1c(-c2cccnc2[C@H](C)OC)c2c3cc(ccc31)-c1csc(n1)C[C@H](NC(=O)[C@H](C(C)C)N(C)C(=O)N1C[C@@H]3OCCN(C)[C@@H]3C1)C(=O)N1CCC[C@H](N1)C(=O)OCC(C)(C)C2` (atropisomer, axis not shown) [Compound A444], the IC50 is reported as 10 to 100 nM.
With `CCn1c(-c2cccnc2[C@H](C)OC)c2c3cc(ccc31)-c1csc(n1)C[C@H](NC(=O)[C@H](C(C)C)N(C)C(=O)N1C3COCC1C3)C(=O)N1CCC[C@H](N1)C(=O)OCC(C)(C)C2` [Compound A540] the IC50 was 10 to 100 nM.
`CCn1c(-c2cccnc2[C@H](C)OC)c2c3cc(ccc31)-c1cc(O)cc(c1)C[C@H](NC(=O)[C@H](C(C)C)N(C)C(=O)[C@H]1CCC(=O)O1)C(=O)N1CCC[C@H](N1)C(=O)OCC(C)(C)C2` (atropisomer, axis not shown) [Compound A405] was tested, and the IC50 was 10 to 100 nM.
`CCn1c(-c2cccnc2[C@H](C)OC)c2c3cc(ccc31)-c1csc(n1)C[C@H](NC(=O)[C@H](C(C)C)N(C)C(=O)N1CC[C@H](O)C1)C(=O)N1CCC[C@H](N1)C(=O)OCC(C)(C)C2` (atropisomer, axis not shown) [Compound A401] was tested, and the IC50 was 10 to 100 nM.
In the case of `CCn1c(-c2cccnc2[C@H](C)OC)c2c3cc(ccc31)-c1csc(n1)C[C@H](NC(=O)[C@H](C(C)C)N(C)C(=O)N(C)CCc1ccncc1)C(=O)N1CCC[C@H](N1)C(=O)OCC(C)(C)C2` (atropisomer, axis not shown) [Compound A557], the IC50 is reported as 10 to 100 nM.
With `CCn1c(-c2cccnc2[C@H](C)OC)c2c3cc(ccc31)-c1csc(n1)C[C@H](NC(=O)[C@H](C(C)C)N(C)C(=O)N(C)C1COC1)C(=O)N1CCC[C@H](N1)C(=O)OCC(C)(C)C2` (atropisomer, axis not shown) [Compound A334] the IC50 was 10 to 100 nM.
Compound `CCn1c(-c2cccnc2[C@H](C)OC)c2c3cc(ccc31)-c1csc(n1)C[C@H](NC(=O)[C@H](C(C)C)N(C)C(=O)N1CCC13CCS(=O)(=O)CC3)C(=O)N1CCC[C@H](N1)C(=O)OCC(C)(C)C2` (atropisomer, axis not shown) [Compound A530] has an IC50 of 10 to 100 nM.
`CCn1c(-c2cccnc2[C@H](C)OC)c2c3cc(ccc31)-c1csc(n1)C[C@H](NC(=O)[C@H](C(C)C)N(C)C(=O)N1CC3(CC(NCCOC)C3)C1)C(=O)N1CCC[C@H](N1)C(=O)OCC(C)(C)C2` (atropisomer, axis not shown) [Compound A512] showed an IC50 of 10 to 100 nM.
With `CCn1c(-c2cccnc2[C@H](C)OC)c2c3cc(ccc31)-c1csc(n1)C[C@H](NC(=O)[C@H](C(C)C)N(C)C(=O)N1C[C@@H]3OCCN(C)[C@H]3C1)C(=O)N1CCC[C@H](N1)C(=O)OCC(C)(C)C2` (atropisomer, axis not shown) [Compound A445] the IC50 was 10 to 100 nM.
`CCn1c(-c2cccnc2[C@H](C)OC)c2c3cc(ccc31)-c1csc(n1)C[C@H](NC(=O)[C@H](C(C)C)N(C)C(=O)N1CCN3C(=O)CN(C)C[C@H]3C1)C(=O)N1CCC[C@H](N1)C(=O)OCC(C)(C)C2` (atropisomer, axis not shown) [Compound A537] was tested, and the IC50 was 10 to 100 nM.
`CO[C@@H](C)c1ncccc1-c1c2c3cc(ccc3n1CC(F)F)-c1csc(n1)C[C@H](NC(=O)[C@H](C(C)C)N(C)C(=O)N1CC(N(C)C)C1)C(=O)N1CCC[C@H](N1)C(=O)OCC(C)(C)C2` (atropisomer, axis not shown) [Compound A316] gave an IC50 of 10 to 100 nM.
